Reference: PMC6661766, “Antimicrobial, antioxidant and cytotoxic evaluation of diazenyl chalcones along with insights to mechanism of interaction by molecular docking studies” (BMC Chemistry, 2019)
In brackets after ≈: the same amount, converted by molar mass. Several values for one entry are separate records, joined by “and”; a condition that tells them apart may be missing. Identical values can stand only once.

Legend:
[1] = test system: HEK human embryonic kidney cells; assay: MTT cytotoxicity assay, HEK; assay type: cell-based; settings: 48 h
Protocol: (§1) The cell lines employed in the investigation were purchased from the National Centre for Cell Sciences (NCCS), Pune, India. The cell lines were cultured in DMEM fortified with 10% FBS, L-glutamine, sodium bicarbonate, and solution of antibiotics (streptomycin 100 μg ml^−1 + penicillin-100 U ml^−1). The culture of cell lines was stored under 5% CO2 incubation at 37 °C.
(§2) The compounds showing maximum activity (antimicrobial and antioxidant potential) were screened for cytotoxicity against A549 and HEK cell lines using MTT assay. Initially, 96-well microculture plate was seeded with 1 × 10^4 cells in 100 µl/well DMEM/MEM, supplemented with 10% FBS followed by incubation at a temperature of 37 °C for a period of 24 h under 5% CO2 atmosphere. After that, the test compounds and camptothecin were added to the cells to achieve a concentration of 10, 25, 50 and 100 µg. MTT reagent (10 µl) of concentration of 5 mg ml^−1 added to all the wells after the duration of 48 h. The plate was incubated further for 4 h followed by careful removal of supernatant from each well. To dissolve the formazan crystals, 100 µl of DMSO was added, and the ELISA reader was used to check the absorbance at 570 nm wavelength. In order to calculate the IC50 concentration, the following equation, i.e. A = Bx + C, was used. In this case, A = 50, while the values B and C values were obtained from the survival curve plot. This study was carried out in duplicate.

[2] = test system: A549 human lung cancer cell line; assay: MTT cytotoxicity assay, A549; assay type: cell-based; settings: for IC50: Homo sapiens, A549, MTT, 48 h
Protocol: as §1, §2

[3] = test system: S. typhi; assay: Antimicrobial serial tube dilution, MIC and MBC; assay type: cell-based, Salmonella typhi MTCC 3216; settings: Salmonella enterica, TYPHI; for MIC: 24 h, read-out: S. typhi MIC; for MBC: read-out: S. typhi MBC
Protocol: (§3) The synthesized diazenyl chalcones (C18 to C27) and controls (dyes A and E, and chalcone) were assessed for their antimicrobial activity by estimation of MIC and MBC/MFC values. […] The stock solutions of the test compounds and standard drugs having a concentration of 1000 µg ml^−1 were prepared by dissolving the used compounds in DMSO. The nutrient broth/Sabouraud dextrose broth was used for the serial dilution of the test compounds and referenced drugs for bacterial and fungal cultures, respectively. […] The size of the final inoculum in each test tube was taken as 5 × 10^5 CFU ml^−1. The incubation of the test and standard compounds of varying concentrations was done for 24 h at 37 ± 2 °C (bacterial culture) and for 48 h at 37 ± 2 °C (C. albicans) and for 7 d at 25 ± 2 °C (A. fumigatus). The diazenyl chalcones (C18–C27), were further evaluated for their bactericidal/fungicidal activity by estimation of MBC/MFC values. […] For proper mixing of culture media, the plates were shaken gently followed by incubation at the predefined temperature and time as stated earlier, followed by the visual inspection of the plates for signs of microbial growth.

[4] = test system: A. fumigatus; assay: Antimicrobial serial tube dilution, MIC and MFC; assay type: cell-based, Aspergillus fumigatus MTCC 2584; settings: Aspergillus fumigatus; for MIC: 168 h, read-out: A. fumigatus MIC; for MFC: read-out: A. fumigatus MFC
Protocol: as §3

[5] = test system: B. subtilis; assay: Antimicrobial serial tube dilution, MIC and MBC; assay type: cell-based, Bacillus subtilis MTCC 2063; settings: Bacillus subtilis; for MIC: 24 h, read-out: B. subtilis MIC; for MBC: read-out: B. subtilis MBC
Protocol: as §3

[6] = test system: B. cereus; assay: Antimicrobial serial tube dilution, MIC and MBC; assay type: cell-based, Bacillus cereus MTCC 1305; settings: Bacillus cereus; for MIC: 24 h, read-out: B. cereus MIC; for MBC: read-out: B. cereus MBC
Protocol: as §3

[7] = test system: C. albicans; assay: Antimicrobial serial tube dilution, MIC and MFC; assay type: cell-based, Candida albicans MTCC 227; settings: Candida albicans; for MIC: 48 h, read-out: C. albicans MIC; for MFC: read-out: C. albicans MFC
Protocol: as §3

[8] = DPPH scavenging antioxidant assay; settings: for log IC50 DPPH: Fig. 1
Protocol: The derivatives (C18–C27) were assessed for their antioxidant potential in the presence of the stable free radical DPPH using ascorbic acid as the standard compound [36, 37]. […] The total volume of 200 µl was used in each well for each concentration of the test and standard drug containing 0.004 µg DPPH. The assay was performed in triplicate at all concentrations of each sample and standard compound. DPPH solutions in methanol at the same concentration without test drugs were used as the control. Each concentration of the sample and standard has a different blank. To minimize evaporation, the plate was covered with the lid and wrapped in aluminium foil and kept in the dark place in order to protect the DPPH radical from degradation by light and left for 30 min. After 30 min of incubation, the plate was kept in ELISA reader to measure the absorbance values at 517 nm. The experiment was performed in triplicate. The antioxidant activity of each sample was then calculated as per cent inhibition of DPPH according to the following equation: %decolourationofDPPH=ControlAbs-SampleAbs×100/ControlAbs

[9] = test system: S. aureus; assay: Antimicrobial serial tube dilution, MIC and MBC; assay type: cell-based, Staphylococcus aureus MTCC 2901; settings: Staphylococcus aureus; for MIC: 24 h, read-out: S. aureus MIC; for MBC: read-out: S. aureus MBC
Protocol: as §3

[10] = test system: E. coli; assay: Antimicrobial serial tube dilution, MIC and MBC; assay type: cell-based, Escherichia coli MTCC 1652; settings: for MIC / MBC: Escherichia coli; for MIC: 24 h, read-out: E. coli MIC, 24 h at 37 ± 2 °C; for MBC: read-out: E. coli MBC; for E. coli MIC: 24 h at 37 ± 2 °C
Protocol: as §3

Compound | MIC [3] [µg/mL] | MBC [3] [µg/mL] | MIC [4] [µg/mL] | MFC [4] [µg/mL] | MIC [5] [µg/mL] | MBC [5] [µg/mL] | melting point [°C] | MIC [6] [µg/mL] | MBC [6] [µg/mL] | MIC [7] [µg/mL] | MFC [7] [µg/mL] | IC50 DPPH [8] | % inhibition of DPPH ([8]; 1.56 µg ml^−1) [%] | % inhibition of DPPH ([8]; 3.12 µg ml^−1) [%] | % inhibition of DPPH ([8]; 6.25 µg ml^−1) [%] | % inhibition of DPPH ([8]; 12.5 µg ml^−1) [%] | % inhibition of DPPH ([8]; 25 µg ml^−1) [%] | % inhibition of DPPH ([8]; 50 µg ml^−1) [%] | % inhibition of DPPH ([8]; 100 µg ml^−1) [%] | MIC [9] [µg/mL] | also measured
O=C(/C=C\c1ccc(Cl)cc1Cl)c1cccc(N=Nc2cccc(Cl)c2Cl)c1O [Compound C-19, (2Z)-3-(2,4-Dichlorophenyl)-1-(3-((2,3-dichlorophenyl)diazenyl)-2-hydroxyphenyl)prop-2-en-1-one] | 125 (≈ 268 µM) | 125 (≈ 268 µM) | 125 (≈ 268 µM) | 250 (≈ 536 µM) | 15.6 (≈ 33.5 µM) | 62.5 (≈ 134 µM) | 112 to 114 | 500 (≈ 1070 µM) | 500 (≈ 1070 µM) | 125 (≈ 268 µM) | 125 (≈ 268 µM) | > 100 µg/mL | 6.64 | 7.71 | 9.39 | 10.87 | 12.99 | 15.22 | 24.49 | 125 (≈ 268 µM) | IC50 [1]: 221 ± 3.23 µg/mL (≈ 474 µM); IC50 [2]: 140.2 ± 1.11 µg/mL (≈ 301 µM); MBC [9]: 125 µg/mL (≈ 268 µM); MIC [10]: 500 µg/mL (≈ 1070 µM); MBC [10]: 500 µg/mL (≈ 1070 µM)
O=Cc1ccc(/C=C\C(=O)c2ccc(N=Nc3c(O)cccc3O)cc2)cc1 [Compound C-23, 4-((1Z)-3-(4-((2,6-Dihydroxyphenyl)diazenyl)phenyl)-3-oxoprop-1-en-1-yl)benzaldehyde] | 31.2 (≈ 83.9 µM) | 62.5 (≈ 168 µM) | 62.5 (≈ 168 µM) | 125 (≈ 336 µM) | 62.5 (≈ 168 µM) | 62.5 (≈ 168 µM) | 182 to 184 | 62.5 (≈ 168 µM) | 62.5 (≈ 168 µM) | 125 (≈ 336 µM) | 125 (≈ 336 µM) | 17.82 µg/mL (≈ 47.9 µM) | 19.03 | 25.53 | 35.86 | 50.45 | 70.53 | 83.17 | 95.68 | 125 (≈ 336 µM) | IC50 [1]: 190.1 ± 1.56 µg/mL (≈ 511 µM); IC50 [2]: 171 ± 2.46 µg/mL (≈ 460 µM); log IC50 DPPH [8]: 1.251; MBC [9]: 125 µg/mL (≈ 336 µM); E. coli MIC [10]: 15.62 µg/mL; MIC [10]: 7.81 to 15.6 µg/mL (≈ 21 to 41.9 µM); MBC [10]: 15.6 µg/mL (≈ 41.9 µM)
O=Cc1ccc(/C=C\C(=O)c2cccc(N=Nc3cccc(Cl)c3Cl)c2O)cc1 [Compound C-25, 4-((1Z)-3-(3-((2,3-Dichlorophenyl)diazenyl)-2-hydroxyphenyl)-3-oxoprop-1-en-1-yl)benzaldehyde] | 125 (≈ 294 µM) | 125 (≈ 294 µM) | 62.5 (≈ 147 µM) | 62.5 (≈ 147 µM) | 15.6 (≈ 36.7 µM) | 62.5 (≈ 147 µM) | 96 to 98 | 125 (≈ 294 µM) | 125 (≈ 294 µM) | 31.2 (≈ 73.5 µM) | 62.5 (≈ 147 µM) | > 100 µg/mL | 9.71 | 10.38 | 11.36 | 13.56 | 14.91 | 15.67 | 20.34 | 62.5 (≈ 147 µM) | IC50 [1]: 270 ± 2.82 µg/mL (≈ 635 µM); Morphological changes in A549 cell line ([2]; C-25 at 50 and 25 µg ml^−1, Fig. 2): reduced the number and clumping of A549 cells to a significant extent; IC50 [2]: 18 ± 1.34 µg/mL (≈ 42.3 µM); Cytotoxicity against A549 cell line in words ([2]; compared with camptothecin): comparable cytotoxicity to camptothecin; MBC [9]: 62.5 µg/mL (≈ 147 µM); MIC [10]: 62.5 µg/mL (≈ 147 µM); MBC [10]: 125 µg/mL (≈ 294 µM)
COc1ccccc1/C=C\C(=O)c1ccc(N=Nc2c(O)cccc2O)cc1 [Compound C-27, (2Z)-1-(4-((2,6-Dihydroxyphenyl)diazenyl)phenyl)-3-(2-methoxyphenyl)prop-2-en-1-one] | 62.5 (≈ 167 µM) | 62.5 (≈ 167 µM) | 125 (≈ 334 µM) | 125 (≈ 334 µM) | 15.6 (≈ 41.7 µM) | 31.2 (≈ 83.5 µM) | 320 to 322 | 125 (≈ 334 µM) | 125 (≈ 334 µM) | 62.5 (≈ 167 µM) | 62.5 (≈ 167 µM) | 7.112 µg/mL and 7.12 µg/mL | 26.13 | 34.18 | 54.67 | 82.21 | 93.45 | 95.71 | 96.62 | 62.5 (≈ 167 µM) | IC50 [1]: 330.6 ± 2.9 µg/mL (≈ 883 µM); IC50 [2]: 124 ± 2.56 µg/mL (≈ 330 µM); log IC50 DPPH [8]: 0.8520; MBC [9]: 62.5 µg/mL (≈ 167 µM); E. coli MIC [10]: 7.81 µg/mL; MIC [10]: 7.81 to 15.6 µg/mL (≈ 20.9 to 41.7 µM); MBC [10]: 15.6 µg/mL (≈ 41.7 µM)
CC(=O)c1ccc(O)c(N=Nc2cccc(Cl)c2Cl)c1 [Dye A, 1-(3-((2,3-Dichlorophenyl)diazenyl)-4-hydroxyphenyl)ethanone] | 62.5 (≈ 202 µM) | 62.5 (≈ 202 µM) | 125 (≈ 404 µM) | 125 (≈ 404 µM) | 125 (≈ 404 µM) | 125 (≈ 404 µM) | 140 to 142 | 31.2 (≈ 101 µM) | 31.2 (≈ 101 µM) | 62.5 (≈ 202 µM) | 62.5 (≈ 202 µM) | > 100 µg/mL | 4.65 | 9.23 | 11.97 | 17.67 | 22.18 | 29.87 | 35.45 | 125 (≈ 404 µM) | MBC [9]: 125 µg/mL (≈ 404 µM); MIC [10]: 15.6 µg/mL (≈ 50.5 µM); MBC [10]: 31.2 µg/mL (≈ 101 µM)
CC(=O)c1ccc(N=Nc2c(O)cccc2O)cc1 [Dye E, 1-(4-((2,6-Dihydroxyphenyl)diazenyl)phenyl)ethanone] | 125 (≈ 488 µM) | 125 (≈ 488 µM) | 125 (≈ 488 µM) | 125 (≈ 488 µM) | 62.5 (≈ 244 µM) | 125 (≈ 488 µM) | 240 to 242 | 62.5 (≈ 244 µM) | 62.5 (≈ 244 µM) | 125 (≈ 488 µM) | 125 (≈ 488 µM) | 69.40 µg/mL (≈ 271 µM) | 7.89 | 12.68 | 19.80 | 26.18 | 34.89 | 47.56 | 56.78 | 31.2 (≈ 122 µM) | MBC [9]: 62.5 µg/mL (≈ 244 µM); MIC [10]: 31.2 µg/mL (≈ 122 µM); MBC [10]: 31.2 µg/mL (≈ 122 µM)
